Assay results reported in article PMC12439480, “Dimeric CCK2R radiotheranostic tracers synergize with mTOR inhibition for enhanced tumor therapy” (Theranostics, 2025).
Numbered stars: 1 amine (or outer) side, 2 acyl side, 3 side chain; on linkers, the order of the positions; unused ones are H or OH. Square brackets hold non-standard residues; d marks the D form. Peptide text beside a SMILES is read from it. * marks the point of attachment. DOTA = O=C(O)CN1CCN(CC(=O)O)CCN(CC(=O)*)CCN(CC(=O)O)CC1; d(γGlu) = O=C(O)[C@@H](CCC(=O)[*:2])N[*:1]; 1Nal = N[C@@H](Cc1cccc2ccccc12)C(=O)O; NMeNle = CCCC[C@H](NC)C(=O)O; PEG4 = NCCOCCOCCOCCOCCC(=O)O

Assays:
[1] = type: physicochemical; details: pH 7.4
Description: The hydrophilicity of [^68Ga]Ga-DOTA-CCK2R-dimer and [^68Ga]Ga-DOTA-CCK-66 was assessed by determining their partition coefficients (Log D7.4) in a phosphate-buffered saline (PBS; pH 7.4)/n-octanol (1:1, v/v) system. Briefly, ~37 kBq of each radiotracer was mixed with 2 mL of the biphasic system, vortexed for 5 min, and centrifuged at 15,000 × g for 5 min. The radioactivity in 100 μL aliquots of each phase was quantified using a γ-counter (n = 5).

in vivo [2] = experiment: in vivo; design: species or system BALB/c nude mice; details: female, BALB/c nude, mouse, iv, total radioactivity
Description: For the micro-positron emission tomography/computed tomography (microPET/CT) imaging study, BALB/c nude mice bearing AR42J tumors (detailed in Supplementary Methods Section S3: Mouse Models) were intravenously injected with 3.7 MBq of [^68Ga]Ga-DOTA-CCK2R-dimer (≈ 120 pmol) or [^68Ga]Ga-DOTA-CCK-66 (≈ 210 pmol) (dissolved in 200 μL of saline; n = 3/group), and microPET/CT imaging was performed at 30, 60, and 120 min post-injection. The mice were anesthetized via inhalation of an isoflurane mixture approximately 5 min before each PET/CT acquisition began. To confirm tumor-specific radiopharmaceutical uptake, blocking experiments were conducted at the 1-h time point of imaging by coinjecting the mice with the radiopharmaceutical and a 400-fold excess of the lead compound.
(§1) All animal studies were approved by the Ethics Committee of Fudan University
(§2) Shanghai Cancer Center (No. FUSCC-IACUC- S2023- 0003). Five-week-old female
(§3) BALB/c nude mice were purchased from Shanghai SLAC Laboratory Animal
(§4) Company. To establish cell-derived xenograft (CDX) models, 1 × 10⁶ AR42J cells
(§5) (100 μL) were subcutaneously inoculated into the right shoulder of each mouse. […]

in vivo [3] = experiment: in vivo; design: species or system BALB/c nude mice; details: mouse; for tissue to tissue ratio at 0.5 h / tissue to tissue ratio at 1 h / tissue to tissue ratio at 2 h: female, BALB/c nude, iv, 3.7 MBq, total radioactivity
Description: To complement the imaging studies, biodistribution experiments were performed. AR42J tumor-bearing mice were intravenously injected with 3.7 MBq of [^68Ga]Ga-DOTA-CCK2R-dimer (≈ 120 pmol) or [^68Ga]Ga-DOTA-CCK-66 (≈ 210 pmol) (dissolved in 200 μL of saline; n = 3/group). The mice were sacrificed at 30, 60, and 120 min post-injection, and the tissues of interest were excised, weighed, and analyzed for radioactivity using a γ-counter. For blocking studies, a 400-fold excess of the lead compound was co-administered, and the mice were sacrificed at 1 h post-injection.
as §1, §2, §3, §4, §5

[4] = Tumor-to-Large intestine ratio (T/B)
[5] = Tumor-to-Small intestine ratio (T/B)

logD [1]: -3.03 ± 0.03
tissue uptake at 0.5 h (in vivo [2]; 3.7 MBq): 16 ± 2.18 %ID/g
tissue uptake at 1 h (in vivo [2]; 3.7 MBq): 19.5 ± 2.95 %ID/g
tissue uptake at 2 h (in vivo [2]; 3.7 MBq): 19.6 ± 3.35 %ID/g
tissue uptake at 1 h (in vivo [2]): 7.9 ± 1.35 %ID/g
tissue to tissue ratio at 0.5 h (in vivo [3]; Tumor-to-Bladder ratio (T/B)): 1.95 ± 0.96
tissue to tissue ratio at 1 h (in vivo [3]; Tumor-to-Bladder ratio (T/B)): 4.41 ± 1.16
tissue to tissue ratio at 2 h (in vivo [3]; Tumor-to-Bladder ratio (T/B)): 7.5 ± 2.91
tissue to tissue ratio at 0.5 h (in vivo [3]; Tumor-to-Blood ratio (T/B)): 2.48 ± 0.27
tissue to tissue ratio at 1 h (in vivo [3]; Tumor-to-Blood ratio (T/B)): 6.36 ± 1.3
tissue to tissue ratio at 2 h (in vivo [3]; Tumor-to-Blood ratio (T/B)): 18.1 ± 14.9
tissue to tissue ratio at 0.5 h (in vivo [3]; Tumor-to-Bone ratio (T/B)): 29.9 ± 14.1
tissue to tissue ratio at 1 h (in vivo [3]; Tumor-to-Bone ratio (T/B)): 34.9 ± 29.4
tissue to tissue ratio at 2 h (in vivo [3]; Tumor-to-Bone ratio (T/B)): 98 ± 19.9
tissue to tissue ratio at 0.5 h (in vivo [3]; Tumor-to-Brain ratio (T/B)): 72.8 ± 22.6
tissue to tissue ratio at 1 h (in vivo [3]; Tumor-to-Brain ratio (T/B)): 91.4 ± 5.94
tissue to tissue ratio at 2 h (in vivo [3]; Tumor-to-Brain ratio (T/B)): 141 ± 66.3
tissue to tissue ratio at 0.5 h (in vivo [3]; Tumor-to-Heart ratio (T/B)): 10.9 ± 1.72
tissue to tissue ratio at 1 h (in vivo [3]; Tumor-to-Heart ratio (T/B)): 8.93 ± 4.2
tissue to tissue ratio at 2 h (in vivo [3]; Tumor-to-Heart ratio (T/B)): 33.2 ± 30.2
tissue to tissue ratio at 0.5 h (in vivo [3]; Tumor-to-Kidney ratio (T/B)): 1.8 ± 0.2
tissue to tissue ratio at 1 h (in vivo [3]; Tumor-to-Kidney ratio (T/B)): 1.1 ± 0.47
tissue to tissue ratio at 2 h (in vivo [3]; Tumor-to-Kidney ratio (T/B)): 1.67 ± 0.79
tissue to tissue ratio at 0.5 h (in vivo [3]; [4]): 5.91 ± 1.81
tissue to tissue ratio at 1 h (in vivo [3]; [4]): 13.3 ± 6.96
tissue to tissue ratio at 2 h (in vivo [3]; [4]): 26.2 ± 5.5
tissue to tissue ratio at 0.5 h (in vivo [3]; Tumor-to-Liver ratio (T/B)): 4.12 ± 0.63
tissue to tissue ratio at 1 h (in vivo [3]; Tumor-to-Liver ratio (T/B)): 4.3 ± 0.38
tissue to tissue ratio at 2 h (in vivo [3]; Tumor-to-Liver ratio (T/B)): 13.2 ± 7.75
tissue to tissue ratio at 0.5 h (in vivo [3]; Tumor-to-Lung ratio (T/B)): 3.22 ± 0.56
tissue to tissue ratio at 1 h (in vivo [3]; Tumor-to-Lung ratio (T/B)): 7.32 ± 5.81
tissue to tissue ratio at 2 h (in vivo [3]; Tumor-to-Lung ratio (T/B)): 11.7 ± 2.81
tissue to tissue ratio at 0.5 h (in vivo [3]; Tumor-to-Muscle ratio (T/M)): 6.69 ± 2.78
tissue to tissue ratio at 1 h (in vivo [3]; Tumor-to-Muscle ratio (T/M)): 10.2 ± 1.41
tissue to tissue ratio at 2 h (in vivo [3]; Tumor-to-Muscle ratio (T/M)): 15.2 ± 6.94
tissue to tissue ratio at 0.5 h (in vivo [3]; [5]): 5.83 ± 2.57
tissue to tissue ratio at 1 h (in vivo [3]; [5]): 7.43 ± 1.49
tissue to tissue ratio at 2 h (in vivo [3]; [5]): 25.7 ± 17.9
tissue to tissue ratio at 0.5 h (in vivo [3]; Tumor-to-Spleen ratio (T/B)): 4.46 ± 1.21
tissue to tissue ratio at 1 h (in vivo [3]; Tumor-to-Spleen ratio (T/B)): 7 ± 2.74
tissue to tissue ratio at 2 h (in vivo [3]; Tumor-to-Spleen ratio (T/B)): 24.9 ± 10.9
tissue to tissue ratio at 0.5 h (in vivo [3]; Tumor-to-Stomach ratio (T/B)): 4.5 ± 1.83
tissue to tissue ratio at 1 h (in vivo [3]; Tumor-to-Stomach ratio (T/B)): 5.06 ± 2.32
tissue to tissue ratio at 2 h (in vivo [3]; Tumor-to-Stomach ratio (T/B)): 6 ± 1.93
tissue uptake at 0.5 h (in vivo [3]; Bladder uptake): 1.9 ± 1.13 %ID/g
tissue uptake at 1 h (in vivo [3]; Bladder uptake): 1.59 ± 0.47 %ID/g
tissue uptake at 2 h (in vivo [3]; Bladder uptake): 1.37 ± 0.43 %ID/g
tissue uptake at 0.5 h (in vivo [3]; Blood uptake): 1.22 ± 0.15 %ID/g
tissue uptake at 2 h (in vivo [3]; Blood uptake): 0.69 ± 0.3 %ID/g
tissue uptake at 0.5 h (in vivo [3]; Bone uptake): 0.12 ± 0.05 %ID/g
tissue uptake at 2 h (in vivo [3]; Bone uptake): 0.1 ± 0.04 %ID/g
tissue uptake at 0.5 h (in vivo [3]; Brain uptake): 0.03 ± 0.01 %ID/g
tissue uptake at 2 h (in vivo [3]; Brain uptake): 0.07 ± 0.01 %ID/g
tissue uptake at 0.5 h (in vivo [3]; Heart uptake): 0.28 ± 0.04 %ID/g
tissue uptake at 2 h (in vivo [3]; Heart uptake): 0.48 ± 0.31 %ID/g
tissue uptake at 0.5 h (in vivo [3]; Kidney uptake): 1.68 ± 0.19 %ID/g
tissue uptake at 1 h (in vivo [3]; Kidney uptake): 7.52 ± 1.95 %ID/g
tissue uptake at 2 h (in vivo [3]; Kidney uptake): 6.4 ± 2.54 %ID/g
tissue uptake at 0.5 h (in vivo [3]; Large intestine uptake): 0.55 ± 0.19 %ID/g
tissue uptake at 2 h (in vivo [3]; Large intestine uptake): 0.37 ± 0.06 %ID/g
tissue uptake at 0.5 h (in vivo [3]; Liver uptake): 0.74 ± 0.1 %ID/g
tissue uptake at 1 h (in vivo [3]; Liver uptake): 1.57 ± 0.22 %ID/g
tissue uptake at 2 h (in vivo [3]; Liver uptake): 0.54 ± 0.17 %ID/g
tissue uptake at 0.5 h (in vivo [3]; Lung uptake): 0.95 ± 0.14 %ID/g
tissue uptake at 1 h (in vivo [3]; Lung uptake): 1.25 ± 0.6 %ID/g
tissue uptake at 2 h (in vivo [3]; Lung uptake): 0.87 ± 0.31 %ID/g
tissue uptake at 0.5 h (in vivo [3]; Muscle uptake): 0.52 ± 0.27 %ID/g
tissue uptake at 2 h (in vivo [3]; Muscle uptake): 0.72 ± 0.36 %ID/g
tissue uptake at 0.5 h (in vivo [3]; Small intestine uptake): 0.57 ± 0.21 %ID/g
tissue uptake at 2 h (in vivo [3]; Small intestine uptake): 0.5 ± 0.27 %ID/g
tissue uptake at 0.5 h (in vivo [3]; Spleen uptake): 0.71 ± 0.2 %ID/g
tissue uptake at 2 h (in vivo [3]; Spleen uptake): 0.45 ± 0.23 %ID/g
tissue uptake at 0.5 h (in vivo [3]; Stomach uptake): 0.74 ± 0.27 %ID/g
tissue uptake at 2 h (in vivo [3]; Stomach uptake): 1.63 ± 0.27 %ID/g
tissue uptake at 0.5 h (in vivo [3]; Tumor uptake): 3 ± 0.63 %ID/g
tissue uptake at 2 h (in vivo [3]; Tumor uptake): 9.53 ± 2.38 %ID/g
SMILES: CCCC[C@@H](C(=O)N[C@@H](CC(=O)O)C(=O)N[C@@H](Cc1cccc2ccccc12)C(N)=O)N(C)C(=O)[C@H](Cc1c[nH]c2ccccc12)NC(=O)CCOCCOCCOCCOCCNC(=O)CC[C@@H](NC(=O)CN1CCN(CC(=O)O)CCN(CC(=O)O)CCN(CC(=O)O)CC1)C(=O)O [[68Ga]Ga-DOTA-CCK-66, metal not drawn, reference compound] ({DOTA-d(γGlu)-PEG4}-W[NMeNle]D[1Nal]-NH2)
